In ChEMBL document CHEMBL1201862, “PubChem BioAssay data set” (2004):
The source made the active and inactive calls.

Assays:
Type in all cases: functional
[1] = molecular target: T1, Apoptotic protease-activating factor 1 (Homo sapiens, UniProt O14727)
T1 sequence (O14727 whole entry): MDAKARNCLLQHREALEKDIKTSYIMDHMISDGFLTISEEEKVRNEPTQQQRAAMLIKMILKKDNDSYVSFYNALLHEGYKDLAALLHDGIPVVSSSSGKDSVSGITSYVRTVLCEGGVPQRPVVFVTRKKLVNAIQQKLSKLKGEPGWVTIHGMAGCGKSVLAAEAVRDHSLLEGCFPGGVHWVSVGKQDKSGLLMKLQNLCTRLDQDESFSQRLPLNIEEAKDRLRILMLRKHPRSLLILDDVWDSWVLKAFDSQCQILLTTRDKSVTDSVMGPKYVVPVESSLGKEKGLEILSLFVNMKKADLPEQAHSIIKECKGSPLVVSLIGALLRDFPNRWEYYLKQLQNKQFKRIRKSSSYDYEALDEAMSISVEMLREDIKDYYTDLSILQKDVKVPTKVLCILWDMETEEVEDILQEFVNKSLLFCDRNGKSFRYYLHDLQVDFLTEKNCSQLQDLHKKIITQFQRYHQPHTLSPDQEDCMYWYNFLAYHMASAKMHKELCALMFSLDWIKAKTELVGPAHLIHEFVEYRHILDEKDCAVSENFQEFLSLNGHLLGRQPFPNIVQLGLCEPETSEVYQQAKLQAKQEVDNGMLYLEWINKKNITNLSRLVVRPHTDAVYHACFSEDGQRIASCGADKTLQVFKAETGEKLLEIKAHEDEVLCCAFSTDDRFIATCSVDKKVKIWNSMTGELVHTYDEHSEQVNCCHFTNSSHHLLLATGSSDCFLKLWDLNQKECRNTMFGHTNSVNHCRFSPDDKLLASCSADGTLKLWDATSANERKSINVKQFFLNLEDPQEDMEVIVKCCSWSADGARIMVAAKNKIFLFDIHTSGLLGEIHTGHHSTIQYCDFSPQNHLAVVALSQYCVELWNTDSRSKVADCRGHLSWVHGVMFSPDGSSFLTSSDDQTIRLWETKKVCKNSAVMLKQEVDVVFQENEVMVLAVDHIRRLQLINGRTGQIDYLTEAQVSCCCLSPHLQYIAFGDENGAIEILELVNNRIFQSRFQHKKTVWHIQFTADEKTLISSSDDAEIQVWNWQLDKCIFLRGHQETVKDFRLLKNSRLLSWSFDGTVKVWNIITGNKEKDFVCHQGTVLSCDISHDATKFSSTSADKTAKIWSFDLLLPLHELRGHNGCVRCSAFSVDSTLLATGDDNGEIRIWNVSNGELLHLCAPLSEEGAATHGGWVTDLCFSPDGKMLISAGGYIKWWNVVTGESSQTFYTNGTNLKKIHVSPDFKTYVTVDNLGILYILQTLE

Protein RecA = molecular target: T2, Protein RecA (Mycobacterium tuberculosis, UniProt P9WHJ3); test: Fluorescence Cell-Free Homogeneous Dose Retest to Identify Inhibitors of RecA-Intein Splicing Activity. [Related pubchem assays (depositor defined):AID2097, AID2223, AID489010, AID492950]
T2 sequence (P9WHJ3 whole entry): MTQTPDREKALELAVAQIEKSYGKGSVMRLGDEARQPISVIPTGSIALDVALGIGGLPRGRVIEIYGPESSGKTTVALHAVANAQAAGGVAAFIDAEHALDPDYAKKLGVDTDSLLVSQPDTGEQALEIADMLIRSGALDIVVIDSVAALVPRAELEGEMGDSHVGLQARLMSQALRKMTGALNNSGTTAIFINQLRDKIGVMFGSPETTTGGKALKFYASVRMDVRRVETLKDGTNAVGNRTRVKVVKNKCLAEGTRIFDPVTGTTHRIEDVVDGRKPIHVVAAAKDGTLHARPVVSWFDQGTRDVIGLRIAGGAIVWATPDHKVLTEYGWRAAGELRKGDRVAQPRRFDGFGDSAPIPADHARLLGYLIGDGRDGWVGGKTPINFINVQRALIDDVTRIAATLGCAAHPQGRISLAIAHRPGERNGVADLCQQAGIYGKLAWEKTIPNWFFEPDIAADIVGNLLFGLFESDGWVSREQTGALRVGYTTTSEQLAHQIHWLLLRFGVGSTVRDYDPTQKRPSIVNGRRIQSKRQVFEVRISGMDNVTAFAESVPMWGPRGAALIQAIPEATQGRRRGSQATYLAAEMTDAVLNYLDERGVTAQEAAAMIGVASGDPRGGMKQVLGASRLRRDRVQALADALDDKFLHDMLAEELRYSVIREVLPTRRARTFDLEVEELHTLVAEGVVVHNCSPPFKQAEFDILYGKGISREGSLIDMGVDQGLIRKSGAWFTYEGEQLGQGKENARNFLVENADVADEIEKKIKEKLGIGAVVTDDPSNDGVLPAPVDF

[2] = molecular target: T3, Replicative DNA helicase DnaB (Mycobacterium tuberculosis, UniProt P9WMR3); test: DnaB intein splicing inhibitors, dose response, biochemical, cell-free fluorescence (AID 449749)
T3 sequence (P9WMR3 whole entry): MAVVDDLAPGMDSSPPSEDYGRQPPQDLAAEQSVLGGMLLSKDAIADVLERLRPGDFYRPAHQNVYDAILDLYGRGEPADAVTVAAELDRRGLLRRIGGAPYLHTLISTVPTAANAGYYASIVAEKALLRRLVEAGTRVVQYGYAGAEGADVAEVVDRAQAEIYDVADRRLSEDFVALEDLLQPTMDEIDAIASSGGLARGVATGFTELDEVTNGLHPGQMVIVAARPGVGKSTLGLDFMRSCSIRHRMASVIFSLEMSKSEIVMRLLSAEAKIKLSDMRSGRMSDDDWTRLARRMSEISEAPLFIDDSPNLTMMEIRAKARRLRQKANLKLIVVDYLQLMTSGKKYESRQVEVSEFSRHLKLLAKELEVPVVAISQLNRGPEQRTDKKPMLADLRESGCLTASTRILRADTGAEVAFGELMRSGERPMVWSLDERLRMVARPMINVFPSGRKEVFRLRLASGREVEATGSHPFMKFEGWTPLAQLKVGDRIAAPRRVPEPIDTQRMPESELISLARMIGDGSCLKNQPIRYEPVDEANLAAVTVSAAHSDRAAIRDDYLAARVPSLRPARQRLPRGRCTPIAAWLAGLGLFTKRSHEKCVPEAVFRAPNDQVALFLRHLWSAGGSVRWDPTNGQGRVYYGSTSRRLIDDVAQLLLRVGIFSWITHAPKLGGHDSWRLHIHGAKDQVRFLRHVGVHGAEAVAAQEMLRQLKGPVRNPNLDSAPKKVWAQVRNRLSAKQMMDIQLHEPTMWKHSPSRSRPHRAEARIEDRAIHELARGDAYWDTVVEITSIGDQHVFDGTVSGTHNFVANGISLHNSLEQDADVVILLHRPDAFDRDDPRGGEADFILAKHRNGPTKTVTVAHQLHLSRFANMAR

| Compound | IC50 [1] | EC50 (Protein RecA) | AC50 [2] |
| --- | --- | --- | --- |
| Oc1nc(Nc2ccccc2)cc2ccccc12 | 3.31 µM (active) | 1.9 µM (active) | > 380 µM (inactive) |
| CCCCCCCCCCOC(=O)C[n+]1c(COc2ccccc2C)n(C)c2ccccc21 | 8.53 µM (active) | 7.26 µM (active) | 3.01 µM (active) |
